Source: US20230017045A1, “PYRIDINE AND PYRIMIDINE CARBOXYLATE HERBICIDES AND METHODS OF USE THEREOF” (Dow AgroSciences LLC, priority 2017, published 2023)
Read-outs that look alike come from different tables or passages of the source.

System: test plant species
Test: Post-emergent herbicidal activity test (greenhouse, foliar spray, visual growth reduction)
Type: in vivo
Details: post-emergence, 336 h, 140 g ai/ha
Method in brief: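 Visual percent injury (0-100) rated 14 d after treatment, relative to nontreated and solvent-blank plants. Test plants at first or second true leaf stage received an overhead track-sprayer application at 187 L/ha. Compounds were formulated in aqueous acetone/DMSO carrier containing crop oil concentrate and X-77 surfactant.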

[1] = ECHCG: barnyardgrass (Echinochloa crus-galli), 14 days after application, read-out: Visual Growth Reduction (%) 14 Days After Application, ECHCG
[2] = IPOHE: ivy-leaf morning glory (Ipomoea hederacea), 14 days after application, read-out: Visual Growth Reduction (%) 14 Days After Application, IPOHE
[3] = KCHSC: kochia (Bassia scoparia), 14 days after application, read-out: Visual Growth Reduction (%) 14 Days After Application, KCHSC
[4] = ORYSA: rice (Oryza sativa), 14 days after application, read-out: Visual Growth Reduction (%) 14 Days After Application, ORYSA
[5] = SETFA: giant foxtail (Setaria faberi), 14 days after application, read-out: Visual Growth Reduction (%) 14 Days After Application, SETFA
[6] = SORVU: grain sorghum (Sorghum vulgare), 14 days after application, read-out: Visual Growth Reduction (%) 14 Days After Application, SORVU
[7] = STEME: common chickweed (Stellaria media), 14 days after application, read-out: Visual Growth Reduction (%) 14 Days After Application, STEME
[8] = TRZAS: wheat, spring (Triticum aestivum), 14 days after application, read-out: Visual Growth Reduction (%) 14 Days After Application, TRZAS
[9] = blackgrass (Alopecurus myosuroides), 14 Days After Application, read-out: Visual Growth Reduction (%) ALOMY
[10] = canada thistle (Cirsium arvense), 14 Days After Application, read-out: Visual Growth Reduction (%) CIRAR
[11] = crabgrass (Digitaria sanguinalis), 14 Days After Application, read-out: Visual Growth Reduction (%) DIGSA
[12] = lambsquarters (Chenopodium album), 14 Days After Application, read-out: Visual Growth Reduction (%) CHEAL
[13] = redroot pigweed (Amaranthus retroflexus), 14 Days After Application, read-out: Visual Growth Reduction (%) AMARE
[14] = wild oat (Avena fatua), 14 Days After Application, read-out: Visual Growth Reduction (%) AVEFA
[15] = yellow nutsedge (Cyperus esculentus), 14 Days After Application, read-out: Visual Growth Reduction (%) CYPES

Compound	pest or weed control at 140 g/ha [1]	pest or weed control at 140 g/ha [2]	pest or weed control at 140 g/ha [3]	pest or weed control at 140 g/ha [4]	pest or weed control at 140 g/ha [5]	pest or weed control at 140 g/ha [6]	pest or weed control at 140 g/ha [7]	pest or weed control at 140 g/ha [8]	pest or weed control at 140 g/ha [9]	pest or weed control at 140 g/ha [10]	pest or weed control at 140 g/ha [11]	pest or weed control at 140 g/ha [12]	pest or weed control at 140 g/ha [13]	pest or weed control at 140 g/ha [14]	pest or weed control at 140 g/ha [15]
C#Cc1cc(-c2nc(C(=O)OC)c(Cl)cc2F)c(Cl)cc1C(F)(F)F [F251, Methyl 3-chloro-6-(2-chloro-5-ethynyl-4-(trifluoromethyl)phenyl)-5-yl) picolinate]	0 to 29%	95 to 100%	60 to 74%	0 to 29%	85 to 94%	85 to 94%	0 to 29%	0 to 29%	0 to 29%	85 to 94%	75 to 84%	95 to 100%	85 to 94%	0 to 29%	0 to 29%
O=C(O)c1nc(-c2ccc(C(F)(F)F)cc2Cl)ccc1[N+](=O)[O-] [F252, 6-(2-Chloro-4-(trifluoromethyl)phenyl)-3-nitropicolinic acid]	0 to 29%	30 to 44%	0 to 29%	0 to 29%	0 to 29%	45 to 59%	0 to 29%	0 to 29%	0 to 29%	0 to 29%	30 to 44%	60 to 74%	0 to 29%	0 to 29%	0 to 29%
COC(=O)c1nc(-c2ccc(C(F)F)c(F)c2OC)c(F)cc1Cl [F253, methyl 3-chloro-6-(4-(difluoromethyl)-3-fluoro-2-methoxyphenyl)-5-fluoropicolinate]	60 to 74%	95 to 100%	95 to 100%	0 to 29%	0 to 29%	45 to 59%	0 to 29%	0 to 29%	0 to 29%	95 to 100%	0 to 29%	95 to 100%	95 to 100%	0 to 29%	0 to 29%
O=C(O)c1nc(-c2cc(F)c(C(F)(F)F)cc2Cl)c(F)cc1Cl [F254, 3-Chloro-6-(2-chloro-5-fluoro-4-(trifluoromethyl)phenyl)-5-fluoropicolinic acid]	95 to 100%	95 to 100%	85 to 94%	75 to 84%	95 to 100%	95 to 100%	95 to 100%	95 to 100%	85 to 94%	95 to 100%	95 to 100%	95 to 100%	95 to 100%	95 to 100%	60 to 74%
O=C(O)c1nc(-c2cccc3c2OC(F)(F)O3)ccc1Cl [F255, 3-Chloro-6-(2,2-difluorobenzo[d][1,3]dioxol-4-yl)picolinic acid]	0 to 29%	0 to 29%	0 to 29%	0 to 29%	0 to 29%	0 to 29%	0 to 29%	0 to 29%	0 to 29%	0 to 29%	0 to 29%	0 to 29%	0 to 29%	0 to 29%	0 to 29%
COC(=O)c1nc(-c2cccc3c2OC(F)(F)O3)c(F)cc1Cl [F256, Methyl 3-chloro-6-(2,2-difluorobenzo[d][1,3]dioxol-4-yl)-5-fluoropicolinate]	0 to 29%	0 to 29%	0 to 29%	0 to 29%	0 to 29%	0 to 29%	0 to 29%	0 to 29%	0 to 29%	0 to 29%	0 to 29%	0 to 29%	0 to 29%	0 to 29%	0 to 29%
COC(=O)c1nc(-c2cc(Br)c(C(F)(F)F)cc2Cl)c(Cl)cc1Cl [F257, Methyl 6-(5-bromo-2-chloro-4-(trifluoromethyl)phenyl)-3,5-dichloropicolinate]	0 to 29%	85 to 94%	0 to 29%	0 to 29%	0 to 29%	0 to 29%	0 to 29%	0 to 29%	0 to 29%	0 to 29%	0 to 29%	75 to 84%	0 to 29%	0 to 29%	0 to 29%
COC(=O)c1nc(-c2ccc3c(c2)OC(F)(F)O3)c(F)cc1Cl [F258, Methyl 3-chloro-6-(2,2-difluorobenzo[d][1,3]dioxol-5-yl)-5-fluoropicolinate]	0 to 29%	95 to 100%	0 to 29%	0 to 29%	0 to 29%	75 to 84%	0 to 29%	0 to 29%	0 to 29%	0 to 29%	85 to 94%	75 to 84%	60 to 74%	0 to 29%	30 to 44%
Cc1cc(C(F)(F)F)cc(Cl)c1-c1ccc(Cl)c(C(=O)O)n1 [F259, 3-Chloro-6-(2-chloro-6-methyl-4-(trifluoromethyl)phenyl)picolinic acid]	45 to 59%	95 to 100%	60 to 74%	0 to 29%	75 to 84%	85 to 94%	0 to 29%	45 to 59%	0 to 29%	75 to 84%	60 to 74%	75 to 84%	95 to 100%	0 to 29%	0 to 29%
COC(=O)c1nc(-c2ccc3ccsc3c2F)ccc1Cl [F260, Methyl 3-chloro-6-(7-fluorobenzo[b]thiophen-6-yl) picolinate]	0 to 29%	0 to 29%	0 to 29%	0 to 29%	0 to 29%	0 to 29%	0 to 29%	0 to 29%	0 to 29%	0 to 29%	0 to 29%	0 to 29%	0 to 29%	0 to 29%	0 to 29%
COC(=O)c1nc(-c2cc3nonc3cc2Cl)ccc1Cl [F261, Methyl 3-chloro-6-(6-chlorobenzo[c][1,2,5]oxadiazol-5-yl)picolinate]	0 to 29%	75 to 84%	0 to 29%	0 to 29%	0 to 29%	0 to 29%	0 to 29%	0 to 29%	0 to 29%	30 to 44%	60 to 74%	60 to 74%	0 to 29%	0 to 29%	0 to 29%
